Measurements published in a flash point compilation (Sun et al. 2020).

In the case of Cc1cccc(Br)c1 [1-bromo-3-methylbenzene], the flash point is reported as 60.00 °C.
Work on O=CC(Cl)Cl [2,2-dichloroacetaldehyde] yielded a flash point of 60.00 °C.
In the case of CC1(N)CCC(C(C)(C)N)CC1 (configuration not stated) [4-(2-aminopropan-2-yl)-1-methylcyclohexan-1-amine], the flash point is reported as 93.00 °C.
Work on CC(C)C(=O)O [2-methylpropanoic acid] yielded a flash point of 56.00 °C.
CC(=O)C(C)O (configuration not stated) [3-hydroxybutan-2-one] showed a flash point of 41.00 °C.
CCC(C)C [2-methylbutane] gave a flash point of -57.00 °C.
With COc1cc(C=O)ccc1O [4-hydroxy-3-methoxybenzaldehyde] the flash point was 153.00 °C.
With COC(=O)Nc1cccc(OC(=O)Nc2cccc(C)c2)c1 [[3-(methoxycarbonylamino)phenyl] N-(3-methylphenyl)carbamate] the flash point was 74.00 °C.
CC1=C(C(=O)Nc2ccccc2)SCCO1 [6-methyl-N-phenyl-2,3-dihydro-1,4-oxathiine-5-carboxamide] showed a flash point of 203.00 °C.
In the case of C=C(C)C(=O)OC(C)C [propan-2-yl 2-methylprop-2-enoate], the flash point is reported as 21.00 °C.
Work on C=CC(=O)OCCN(CC)CC [2-(diethylamino)ethyl prop-2-enoate] yielded a flash point of 91.00 °C.
C=C(C)C(=O)OCC(C)C [2-methylpropyl 2-methylprop-2-enoate] gave a flash point of 49.00 °C.
Molecule CCC[Si](Cl)(Cl)Cl [trichloro(propyl)silane] has a flash point of 37.00 °C.
CCCC#N [butanenitrile] showed a flash point of 17.00 °C.
Molecule CCCCC(CC)CN1C(=O)C2C3C=CC(C3)C2C1=O (configuration not stated) has a flash point of 177.00 °C.
CCCCCCC(O)C/C=C\CCCCCCCC(=O)OCC(COC(=O)CCCCCCC/C=C\CC(O)CCCCCC)OC(=O)CCCCCCC/C=C\CC(O)CCCCCC (configuration not stated) gave a flash point of 229.00 °C.
Clc1ccc(-c2ccc(Cl)c(Cl)c2Cl)c(Cl)c1Cl [1,2,3-trichloro-4-(2,3,4-trichlorophenyl)benzene] showed a flash point of 141.00 °C.
With C=Cc1cccc(C)c1 [1-ethenyl-3-methylbenzene] the flash point was 60.00 °C.
In the case of N=C(N)c1ccc(OCCCCCOc2ccc(C(=N)N)cc2)cc1 [4-[5-(4-carbamimidoylphenoxy)pentoxy]benzenecarboximidamide], the flash point is reported as 103.00 °C.
With C#CC(=O)O [prop-2-ynoic acid] the flash point was 58.00 °C.
Work on NC(=O)/N=N/C(N)=O [(E)-carbamoyliminourea] yielded a flash point of 96.00 °C.
Molecule CC(=O)C=CC1C(C)=CCCC1(C)C (configuration not stated) [4-(2,6,6-trimethylcyclohex-2-en-1-yl)but-3-en-2-one] has a flash point of 118.00 °C.
In the case of CCOC(N)=O [ethyl carbamate], the flash point is reported as 92.00 °C.
Work on CSCCC(O)C(=O)O (configuration not stated) [2-hydroxy-4-methylsulfanylbutanoic acid] yielded a flash point of 121.00 °C.
CCCCCNCCCCC [N-pentylpentan-1-amine] gave a flash point of 51.00 °C.
For CCCCC(CC)COP(=O)(OCC(CC)CCCC)OCC(CC)CCCC (configuration not stated) [tris(2-ethylhexyl) phosphate], the flash point was 152.00 °C.
With Cc1ccccc1F [1-fluoro-2-methylbenzene] the flash point was 13.00 °C.
CC1(C)C(=O)N(Cl)C(=O)N1Cl [1,3-dichloro-5,5-dimethylimidazolidine-2,4-dione] showed a flash point of 174.00 °C.
OCCCO [propane-1,3-diol] showed a flash point of 174.00 °C.
In the case of COC(=O)CC(C)=O [methyl 3-oxobutanoate], the flash point is reported as 70.00 °C.
Work on CC1(C)OCC(CO)O1 (configuration not stated) [(2,2-dimethyl-1,3-dioxolan-4-yl)methanol] yielded a flash point of 80.00 °C.
Work on COC(=O)c1ccccc1N [methyl 2-aminobenzoate] yielded a flash point of 104.00 °C.
Molecule Nc1cccnc1 [pyridin-3-amine] has a flash point of 190.00 °C.
Molecule CCOCCCO [3-ethoxypropan-1-ol] has a flash point of 54.00 °C.
Work on C=C(C)C#N [2-methylprop-2-enenitrile] yielded a flash point of 13.00 °C.
For Cc1ccccc1OP(=O)(Oc1ccccc1C)Oc1ccccc1C [tris(2-methylphenyl) phosphate], the flash point was 225.00 °C.
Work on C=C(C)C(=O)OCCCC [butyl 2-methylprop-2-enoate] yielded a flash point of 52.00 °C.
C[O-].[K+] [potassium;methanolate] gave a flash point of 11.00 °C.
O=C(Cl)c1cccc(C(=O)Cl)c1 [benzene-1,3-dicarbonyl chloride] gave a flash point of 180.00 °C.
CC(O)COCC(C)O (configuration not stated) [1-(2-hydroxypropoxy)propan-2-ol] gave a flash point of 138.00 °C.
Work on CCCC=C(C=O)CC [2-ethylhex-2-enal] yielded a flash point of 68.00 °C.
For O=[N+]([O-])c1ccc(Cl)c(Cl)c1 [1,2-dichloro-4-nitrobenzene], the flash point was 124.00 °C.
Work on Cc1ccccc1O [2-methylphenol] yielded a flash point of 81.00 °C.
Work on CC12CCC(CC1)C(C)(C)O2 [1,3,3-trimethyl-2-oxabicyclo[2.2.2]octane] yielded a flash point of 49.00 °C.
For C#CCBr [3-bromoprop-1-yne], the flash point was 10.00 °C.
c1ccc2c(c1)CCCC2 [1,2,3,4-tetrahydronaphthalene] showed a flash point of 80.00 °C.
Molecule CCCC(=O)O [butanoic acid] has a flash point of 77.00 °C.
CCOC(=O)/C=C/C(=O)OCC [diethyl (E)-but-2-enedioate] showed a flash point of 104.00 °C.
With c1c[nH]cn1 [1H-imidazole] the flash point was 145.00 °C.
With CCCCCCCCCCCCCCCCCCCCC [henicosane] the flash point was 113.00 °C.
Molecule NCCCN [propane-1,3-diamine] has a flash point of 24.00 °C.
With O=CC(Cl)=C(Cl)C(=O)O [2,3-dichloro-4-oxobut-2-enoic acid] the flash point was 100.00 °C.
Molecule C=C(C)C(=O)OCC [ethyl 2-methylprop-2-enoate] has a flash point of 16.00 °C.
Molecule Nc1ccc(Cc2ccc(N)c(Cl)c2)cc1Cl [4-[(4-amino-3-chlorophenyl)methyl]-2-chloroaniline] has a flash point of 113.00 °C.
With COc1ccc(O)cc1 [4-methoxyphenol] the flash point was 132.00 °C.
For CCC1(c2ccccc2)C(=O)NC(=O)NC1=O [5-ethyl-5-phenyl-1,3-diazinane-2,4,6-trione], the flash point was 174.00 °C.
Molecule CCCCCCCCCCCCCCCCCCCCCC [docosane] has a flash point of 113.00 °C.
NC1CCCCC1 [cyclohexanamine] gave a flash point of 31.00 °C.
CCC(C(=O)O)C(=O)O [2-ethylpropanedioic acid] gave a flash point of 85.00 °C.
Molecule C=CC#N [prop-2-enenitrile] has a flash point of 0.00 °C.
Work on CN(C)C(=S)SSC(=S)N(C)C [dimethylcarbamothioylsulfanyl N,N-dimethylcarbamodithioate] yielded a flash point of 138.00 °C.
C(OCC1CO1)C1CO1 (configuration not stated) [2-(oxiran-2-ylmethoxymethyl)oxirane] showed a flash point of 64.00 °C.
For CNC(C)=O [N-methylacetamide], the flash point was 108.00 °C.
With Cc1ccc([N+](=O)[O-])cc1 [1-methyl-4-nitrobenzene] the flash point was 106.00 °C.
CCC(O)OCCCOC (configuration not stated) [1-(3-methoxypropoxy)propan-1-ol] gave a flash point of 74.00 °C.
With C1CN(SSN2CCOCC2)CCO1 [4-(morpholin-4-yldisulfanyl)morpholine] the flash point was 121.00 °C.
In the case of C1O[C@H]1[C@H]1CO1 [(2R)-2-[(2R)-oxiran-2-yl]oxirane], the flash point is reported as 46.00 °C.
